Test results from the supplement of paper PMC8671470.

What was measured:
Conditions in all cases: 72 h
BV-173 = system: BV-173
Outline: (§1)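 The IC50 was read from log-logistic dose–response fits. Fifteen myeloid leukaemia lines were exposed for 72 h at 37 °C with 5% CO2 to five tenfold doses from 1 to 10,000 nM in duplicate. ATP luminescence, normalised to vehicle and to a 10 µM positive control, was fitted with four parameters.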

HEL = system: HEL
Outline: as §1

HL-60 [1] = system: HL-60
Outline: as §1

K-562 [2] = system: K-562
Outline: as §1

KCL-22 [3] = system: KCL-22
Outline: as §1

KG-1 [4] = system: KG-1
Outline: as §1

KU-812 [5] = system: KU-812
Outline: as §1

LAMA-84 [6] = system: LAMA-84
Outline: as §1

ML-2 [7] = system: ML-2
Outline: as §1

MOLM-13 [8] = system: MOLM-13
Outline: as §1

MV4-11 [9] = system: MV4-11
Outline: as §1

Mono-Mac-6 = system: Mono-Mac-6
Outline: as §1

NOMO-1 [10] = system: NOMO-1
Outline: as §1

SHI-1 [11] = system: SHI-1
Outline: as §1

THP-1 [12] = system: THP-1
Outline: as §1

HL-60 [13] = test: cell viability (% survival relative to DMSO control); higher = less cytotoxic
Outline: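 For each screen, HL-60 cells in RPMI 1640 with 10% FBS carried either DMSO or 100 nM of one of three metabolic inhibitors while the full library was applied at five tenfold concentrations, 1–10,000 nM, in duplicate. Plates were 384-well and were kept 72 h at 37 °C, 5% CO2. Viability, measured by CellTiter-Glo, was normalised to wells with DMSO and with 10 μM proteasome inhibitor. Where area under the curve appears, it was fitted by four-parameter log-logistic models in drc and PharmacoGx.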

K-562 [14] = test: cell viability (% survival relative to DMSO control, bortezomib = 0%); higher = less cytotoxic
Outline: (§2)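 After 72 h at 37 °C with 5% CO2, cell viability in 384-well plates was measured by CellTiter-Glo luminescence. The plates held compounds pre-printed at 1, 10, 100, 1000 or 10000 nM in duplicate, and cells from 10 AML and 5 CML lines seeded at densities titrated to linear growth. Percent survival is the duplicate mean, normalised to vehicle as 100% and a 10 µM positive control as 0%.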

KCL-22 [15] = test: as above
Outline: as §2

KG-1 [16] = test: as above
Outline: as §2

KU-812 [17] = test: as above
Outline: as §2

LAMA-84 [18] = test: as above
Outline: as §2

ML-2 [19] = test: as above
Outline: as §2

MOLM-13 [20] = test: as above
Outline: as §2

MV4-11 [21] = test: as above
Outline: as §2

NOMO-1 [22] = test: as above
Outline: as §2

SHI-1 [23] = test: as above
Outline: as §2

THP-1 [24] = test: as above
Outline: as §2

OCC(CO)N[C@H]1C[C@](O)(CO)[C@@H](O)[C@H](O)[C@H]1O [Voglibose]
Conditions	IC50 (cell viability) [µM]
BV-173	> 10
HEL	> 10
HL-60 [1]	> 10
K-562 [2]	> 10
KCL-22 [3]	> 10
KG-1 [4]	> 10
KU-812 [5]	> 10
LAMA-84 [6]	> 10
ML-2 [7]	> 10
MOLM-13 [8]	> 10
MV4-11 [9]	6.47
Mono-Mac-6	> 10
NOMO-1 [10]	> 10
SHI-1 [11]	> 10
THP-1 [12]	> 10

cell viability [%], HL-60 [13]
Conditions	0.001 µM	0.01 µM	0.1 µM	1 µM	10 µM
co-treatment: AZD3965 100 nM	96.2	103	100	96.5	93.58
co-treatment: DMSO vehicle	99.5	99.9	100	99.4	99.5
co-treatment: GSK2194069 100 nM	104	104	104	79.9	97.3
co-treatment: pictilisib 100 nM	113	112	106	81.9	99.1

cell viability [%]
Conditions	1 nM	10 nM	100 nM	1000 nM	10000 nM
K-562 [14]	97.9	107	113	89.4	99.3
KCL-22 [15]	99.4	97.1	98	98.1	111
KG-1 [16]	95.6	102	107	95.6	106
KU-812 [17]	97.5	109	106	88.5	91.3
LAMA-84 [18]	102	105	99.6	94.6	103
ML-2 [19]	109	110	107	95.2	111
MOLM-13 [20]	117	94.4	127	70	70.1
MV4-11 [21]	106	107	113	84.7	52.7
NOMO-1 [22]	103	103	107	99.1	102
SHI-1 [23]	106	108	100	96	94.4
THP-1 [24]	108	96	93	101	99.1
